Where two headings read alike, the source gives them in different places.
Legend:
K562 = test: In vitro cytotoxic activity (CellTiterGlo), K562 (CML); assay type: cell-based; settings: Homo sapiens, 48-hours, read-out: K562 LD50
Procedure: (§1) Non-metabolized targeted toxicity, or general toxicity, of compounds was assessed by treating a panel of selected cell lines in culture with a dilution series of test compounds and the lethal dose that will kill half of the cells (i.e., the LD50) was determined. Compounds herein were assayed against a panel of cytokine-independent Philadelphia chromosome (BCR-ABL1 translocation) positive (Ph+) leukemia and lymphoma cell lines along with several control cell lines that were ABL1-independent. The panel included murine cell lines BaF3-wildtype (wt), BaF3-mutants (BaF3-wt cells engineered to be reliant on various kinase domain mutations with the BCR-ABL1 fusion protein), and various ALL and CML human cell lines, including SD-1, TOM-1, NALM-21, K562, Jeko-1, BV173, and KCL-22.
(§2) To test the cytotoxic activity of compounds herein, 1.6E4 cells were plated in 96-well plates at a final volume of 135 μL per well. Compounds were then added to the wells. In general, final concentrations of compounds started at a maximum concentration of […] and were diluted by half-log concentrations down to a final concentration of 0.316 nM. However, different cell lines required varying drug concentration ranges for optimal LD50 calculations. To create half-log dilutions, 40 mM DMSO solutions of compounds were diluted in half-log iterations to generate 400× starting concentration of compounds in DMSO. The 400× compound solutions were then diluted by 40-fold by adding 5 μL of 400× DMSO stock to 195 μL cell culture media, generating 10× drug concentrations in cell culture media. Then 15 μL of the 10× drug solutions were added to the 135 μL volume of cell suspension, resulting in 1× final drug concentrations with 0.25% DMSO in all wells. 48-hours after adding compounds, cells were measured for relative viability to generate cytotoxicity curves associated with the varying concentrations of compounds. […] LD50 values were measured by normalizing luminescence intensity to the lowest drug concentration. GraphPad Prism was used to plot and calculate LD50 values from the cytotoxic kill curves. Curves were fit to a non-linear regression model, with compound concentration vs. response and variable slope (four parameters).

NALM-21 = test: In vitro cytotoxic activity (CellTiterGlo), NALM-21 (ALL); assay type: cell-based; settings: Homo sapiens; 48-hours; read-out: NALM-21 LD50
Procedure: as §1, §2

[1] = non-GLP multi-dose toxicity study (dose escalation, daily IP injection); assay type: in vivo, mouse (6-week-old Balb/c females); settings: mice; for tolerability: daily IP
Procedure: An initial non-GLP multi-dose toxicity study of Cmpd11 and Cmpd66 was performed, which included a comparison to COM1 and COM3 clinical compounds. […] Body weights were recorded 2× weekly for healthy mice followed by weekly in the recovery phase. Blood draws were taken, retro-orbitally, every other week (for a total of three blood draws per group) to determine the plasma levels of compounds throughout the duration of the study (unless mice were euthanized prior to completion of the 28-day dosing period). […] Any animals showing more than 9% weight loss were weighed every day and animals were euthanized after a weight loss of 15% or more or evidence of high distress (e.g., listless, hunched posture, high grimace score). Also, plasma samples were drawn at euthanasia. Control groups included vehicle only and no manipulation.
A summary of the study is illustrated in FIG. 14. There are six groups with 90 mice total and following is an overview of groups for the study.
The following are criteria for dose escalation and staggering of group starting points. Animals in each group are monitored after the initial dose for 3-4 days, and if there is no observed dose-limiting toxicity (DLT), then a separate cohort of naïve animals are administered the next higher dose level. Note that each cohort of animals receives the same drug and drug dose for the duration of the 28-day dosing period unless euthanasia is required. Animals in the second, dose-escalated group, are then monitored for 3-4 days, and if there is no observed DLT, animals from a fresh cohort are administered the next higher dose level, while continuing with the former cohorts up to 5 dose levels total. Animals in each cohort then are monitored after the third dose for 7 days, and if there is no observed DLT, then animals are administered the next higher doses. If DLT is observed during a monitoring period for any dose level, a subsequent dose is reduced by a level that is intermediate between the highest tolerated level tested and the minimum toxic level tested.

ABL1(wt) = ABL1(wt) (Homo sapiens, UniProt P00519); test: Z′-LYTE assay (labeled peptide cleavage), ABL1(wt); assay type: biochemical
Description: (§3) This Example describes a cell-free assay utilized to identify candidate compounds that bind to and inhibit protein kinase (PK) and PK variants. One assay is referred to as a “Z′-LYTE assay” and is an example of a labeled peptide cleavage assay. The fluorescence-based assay relies on the differential sensitivity of a small, dual-end-labelled peptide to cleavage by a protease, dependent on the phosphorylation state of the peptide (FIG. 1). The peptide substrate is end-labelled with two distinct fluorophores that comprise a Fluorescence Resonance Energy Transfer (FRET) pair.
(§4) In the absence of inhibitor, the kinase transfers the gamma-phosphate from ATP to the single, unique tyrosine, serine or threonine in the synthetic FRET peptide. The reaction conditions are titrated such that 10-40% of the peptide substrate is phosphorylated. In a second reaction, a site-specific protease that only recognizes and cleaves the non-phosphorylated FRET peptide is added. Cleavage interferes with FRET between the donor (i.e., coumarin) and the acceptor (i.e., fluorescein) fluorophores on the FRET-peptide substrate, unlike the phosphorylated, uncleaved peptide.
(§5) The Test Compounds are screened in 1% DMSO (final) in the well.
(§6) All Peptide/Kinase Mixtures are diluted to a 2× working concentration in the appropriate Kinase Buffer. The 2×ABL1 polypeptide/Tyr 02 substrate peptide mixture is prepared in 50 mM HEPES pH 7.5, 0.01% BRIJ-35, 10 mM MgCl2, 1 mM EGTA. The final 10 μL Kinase Reaction contains 0.3-1.2 ng ABL1 (or 1.36-6 ng ABL1(T315I)) and 2 μM Tyr 02 in 50 mM HEPES, pH 7.5, 0.01% BRIJ-35, 10 mM MgCl2, 1 mM EGTA. After the 1-hour Kinase Reaction incubation, 5 μL of a 1:128 dilution of Development Reagent A is added. The ABL1(wt) polypeptide utilized for the assay described in this Example was the “isoahABL1(wt)” polypeptide described herein (SEQ ID NO:4), which is referred to as “ABL1” in Table 1 and “ABL1(wt)” or “WT” in Table 3 of this Example. The ABL1 variant polypeptides utilized contained the same polypeptide as the “isoahABL1(wt)” polypeptide except that each contained one corresponding amino acid substitution chosen from E255K, F317I, F317L, G250E, T315I or Y253F. […]
(§7) All ATP Solutions are diluted to a 4× working concentration in Kinase Buffer (50 mM HEPES, pH 7.5, 0.01% BRIJ-35, 10 mM MgCl2, 1 mM EGTA). The ATP Km apparent (Km app) is previously determined using a Z′-LYTE assay.
(§8) Bar-coded Corning, low volume NBS, black 384-well plate (Corning Cat. #4514) • 1. […] Read on fluorescence plate reader and analyze the data
A known inhibitor control standard curve, 10-point titration, is run for each individual kinase on the same plate as the kinase to ensure the kinase is inhibited within an expected IC50 range previously determined. […]

ABL1 T315I = target: T1, ABL1 T315I (Homo sapiens, UniProt P00519, T315I); test: Z′-LYTE assay, ABL1 T315I; assay type: biochemical
T1 construct: The ABL1 variant polypeptides utilized contained the same polypeptide as the “isoahABL1(wt)” polypeptide except that each contained one corresponding amino acid substitution
Description: as §3, §4, §5, §6, §7, §8

Row | Structure (SMILES) | IC50 (K562) [nM] | IC50 (NALM-21) [nM] | other results
1 | Cc1ccc(Nc2ncc3cccc(-c4ccc(F)cc4OC(C)C)c3n2)cc1NC(=O)c1ccc(C(=O)N2CCN(C)CC2)cc1 [Cmpd44, N-(5-((8-(4-fluoro-2-isopropoxyphenyl)quinazolin-2-yl)amino)-2-methylphenyl)-4-(4-methylpiperazine-1-carbonyl)benzamide] | 300 | 281 | 
2 | Cc1ccc(Nc2ncc3cccc(-c4ccc(F)cc4OC(C)C)c3n2)cc1NC(=O)C1CCN(C)CC1 [Cmpd66, N-(5-((8-(4-fluoro-2-isopropoxyphenyl)quinazolin-2-yl)amino)-2-methylphenyl)-1-methylpiperidine-4-carboxamide] | 141 | 133 | tolerability relative to COM1 ([1]; at doses required to reach the in vitro K562-Luc EC50 plasma levels in vivo, early results): more tolerable than COM1; tolerability ([1]; 1.5 mg/kg, through day 24): well tolerated; tolerability ([1]; 4.5 mg/kg, at day 21): well tolerated; tolerability ([1]; maximum dose of 18 mg/kg, at day 14): well tolerated
3 | Cc1ccc(Nc2ncc3cccc(-c4ccc(F)cc4OC(C)C)c3n2)cc1NC(=O)CN1CCN(C)CC1 [Cmpd58, N-(5-((8-(4-fluoro-2-isopropoxyphenyl)quinazolin-2-yl)amino)-2-methylphenyl)-2-(4-methylpiperazin-1-yl)acetamide] | 124 | 134 | 
4 | Cc1ccc(C(=O)Nc2ccc(CN3CCN(C)CC3)c(C(F)(F)F)c2)cc1C#Cc1cnc2cccnn12 [ponatinib] | 3250 | 3600 | 
5 | CNC(=O)c1ccc(C(=O)Nc2cc(Nc3ncc4cccc(-c5ccc(F)cc5OC(C)C)c4n3)ccc2C)cc1 [Cmpd10] |  |  | IC50 (ABL1(wt); class by IC50 values in Table 5, read-out: inhibitor class of ABL1(wt) according to IC50): < 20 nM; IC50 (ABL1(wt); test compounds, Z′-LYTE, read-out: IC50 values for test compounds, ABL1(wt)): 11.2 nM; IC50 (ABL1 T315I; class by IC50 values in Table 5, read-out: inhibitor class of ABL(T315I) according to IC50): < 20 nM; IC50 (ABL1 T315I; test compounds, Z′-LYTE, read-out: IC50 values for test compounds, ABL1(T315I)): 3.86 nM
